We go through 3 molecules from PMC12635197, “Discovery of first-in-class inhibitors of the TRF1:TIN2 protein:protein interaction by fragment screening” (Scientific Reports, 2025).

A short description of data set [1]: LC-MS analysis of original compound DMSO stock. The note with it: negative mode LC-MS. The format is physicochemical. An excerpt:
By measuring the R2 values of fragments with and without protein present in the sample, a strong indication of the extent of protein binding can be obtained. […] This increase in R2 was reversed upon addition of the TIN2TBM competitor. […] Nevertheless, given the strong binding activity of the fragment derivative 27 in the CPMG assay, a pure stock of 27 was synthesised and put forward for further characterisation using a quantitative LO-NMR assay to determine the dissociation constant.
Supplementary Figure 3: Negative mode LC-MS analysis of compound 25. The LC-UV
This value aligned with the molecular weight of compound 27 (251 g mol-1), conﬁrming that
(1 picture or pasted object on this page, not shown here)

Data set [2] concerns the target TRF1TRFH. Also noted: method as in PMID 18202258. The note with it: ITC; read-out: dissociation constant of TIN2TBM for TRF1TRFH; cited from earlier work.
In data set [3] the target is T1, TRFH domain of TRF1 (TRF1_(TRFH)), residues 47–268 (human, UniProt P54274-1 47-268).
T1 construct: cDNA codon-optimised for E. coli; also called TRF homology (TRFH) domain; source: E. coli BL21-CodonPlus(DE3)-RIL, purified (HisTrap, TEV cleavage, second HisTrap, Superdex 200 SEC); not shown: His6, N-terminal, cleaved; MBP, N-terminal, cleaved
T1 sequence (looked up): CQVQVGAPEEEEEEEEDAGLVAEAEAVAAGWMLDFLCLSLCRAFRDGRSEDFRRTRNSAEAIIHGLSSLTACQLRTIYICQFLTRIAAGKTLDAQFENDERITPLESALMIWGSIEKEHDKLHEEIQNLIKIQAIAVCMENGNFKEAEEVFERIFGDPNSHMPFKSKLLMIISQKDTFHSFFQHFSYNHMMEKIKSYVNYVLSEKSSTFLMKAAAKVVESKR
In words: ligand-observed NMR (CPMG / R2 relaxation) competition; fragment 250 µM with 20 µM TRF1_(TRFH), with or without 40 µM TIN2TBM peptide as competitor; NMR buffer; 298 K. To be noted: both partners purified.

As for `CCOc1ccc(S(=O)(=O)n2ccnc2)c2ccccc12` [Compound 25], the “stability in original screening DMSO stock” value in data set [1] is “degraded into compound 27”.

For “Ac-RHFNLAPLGRRRVQSQWASTR-CONH2 (Ac-RHFNLAPLGRRRVQSQWASTR-NH2) [TIN2TBM]”, the Kd in data set [2] is 300 nM.

B1: TIN2TBM peptide (21-mer, Ac-RHFNLAPLGRRRVQSQWASTR-CONH2) (peptide)
peptide: Ac-RHFNLAPLGRRRVQSQWASTR-NH2
notes: limits worked out from L260 of the F-X-L-X-P motif
With B1, in data set [3], the binding result is recorded as “binds”.
